According to patent US12419900B2, “Induction of synthetic lethality with epigenetic therapy” (The Johns Hopkins University, priority 2017, dated 2025):
Where two headings read alike, the source gives them in different places.

What was measured:
[1] = test system: DU145 prostate cancer cells; assay: Alamar blue cell viability and growth, alisertib x decitabine dose matrix; type: cell-based; details: Aurora kinase inhibitor + decitabine
Experimental: DU145 prostate cancer cells and A549 lung cancer cells were treated with varying concentrations (0 nM, 10 nM, 50 nM, and 100 nM) of alisertib in addition to varying concentrations of decitabine (0 nM, 50 nM, 100 nM, and 250 nM). Representative data are shown in FIGS. 2A and 2B, as well as the Tables below. […] In each panel, a dose response of each drug alone and in combination was used in Alamar blue cell viability assays. […] Formal synergy analyses were performed using the Bliss independence score (where values greater than zero indicate greater than additive effect). […] The graph of FIG. 2A is a growth curve of the DU145 prostate cancer cells for the agents alone (decitabine and alisertib separately), a vehicle control, and the agents in combination (decitabine and alisertib together). […] Likewise, the graph of FIG. 2B is a growth curve of the A549 lung cancer cells for the agents alone (decitabine and alisertib separately), a vehicle control, and the agents in combination (decitabine and alisertib together). […] The synergy analysis of the combination of decitabine and alisertib was evaluated in a series of 18 cancer cell lines (9 prostate, 1 ovarian, 1 lung, 2 colon, 2 central nervous system, and 3 breast cancer cell lines) and 2 non-cancer cell models.

PC-3 cancer cells [2] = assay: Chemical library screen (JHDL), second stage, dose response matrix with decitabine; type: cell-based
Excerpt: Cells were exposed to each dose of decitabine for four consecutive days prior to addition of each dose of the identified compounds for three consecutive days. […] FIG. 30 is a bar graph illustrating the Bliss Independence score values for the cells of the compounds identified.

PC-3 xenograft tumors = assay: PC-3 xenograft growth suppression; type: in vivo, Male Fox1-nude mice; details: KCC-08 i.p. 1 then 0.5 mg/kg, isotretinoin oral 30 mg/kg
Experimental: For cancer xenograft growth suppression, one million human PC-3 prostate cancer cells were suspended in Matrigel and inoculated into the flanks of Male Fox1-nude mice provided by Jackson Laboratory (Bar Harbor, ME). When the resultant xenograft tumors were measurable two weeks later, the tumor-bearing mice were treated with KCC-08, given by intraperitoneal infection in saline for 5 of 7 days at 1 mg/kg for week 1 and then 0.5 mg/kg for 5 of 7 days for week 2. Isotretinoin was given by oral gavage in peanut oil at 30 mg/kg for the same 5 of 7 days as the KCC-08 for weeks 1 and 2. For week 3, isotretinoin was given by oral gavage in peanut oil at 30 mg/kg for 5 of 7 days, and KCC-08 was not administered. Tumors were measured 3 times a week for 3 weeks, and the volume was estimated by using the formula 4/3*Π*width*length*depth.

[3] = test system: retinoic acid signaling pathway; assay: pRARE-luciferase reporter of retinoic acid signaling in PC-3 cells; type: cell-based, human; details: 72 hours; for RAR Reporter Activity, Average / RAR Reporter Activity, Trial 1 / RAR Reporter Activity, Trial 2 / RAR Reporter Activity, Trial 3 / RAR Reporter Activity, Trial 4 / RAR Reporter Activity, Trial 5 / RAR Reporter Activity, Trial 6: KCC-08 10 μM, isotretinoin 5 μM, vehicle average 1.00
Experimental: To determine whether MBD2 protein inhibitors triggered retinoic acid signaling pathway activation, KCC-08 was administered to PC-3 human prostate cancer cells transfected with a heterologous reporter plasmid responsive to the presence of retinoic acid signaling (pRARE-luciferase), and the cells were used to assess reactivation of the retinoic acid response signaling pathway. The cancer cells were treated with a vehicle control or KCC-08 (10 μM) both with and without isotretinoin (5 μM) for 72 hours, and then assayed for luciferase reporter production.

PC-3 cancer cells [4] = assay: Clonogenic survival; type: cell-based, human; details: 72 hours treatment, colonies ten days later, vehicle control 100.00, 12-27 replicates
Experimental: To assay for cancer clonogenic survival, PC-3 cancer cells were seeded into 6-well plates at 5,000 cells/well and allowed to attach overnight. Next, the cells were treated for 72 hours with vehicle control or KCC-08, both with and without isotretinoin, washed three times with phosphate-buffered saline, and then placed back into complete growth medium. Ten days later, colonies founded by surviving cells were detected using crystal violet staining.

[5] = PC-3, decitabine 0-10 μM four days, then compound 0-10 μM three days

Cc1csc(-c2nnc(Nc3ccc(Oc4ncccc4-c4ccnc(N)n4)cc3)c3ccccc23)c1 [AMG-900]
growth inhibition of DU-145 cells in combination with decitabine [1]: synergistic growth inhibition

Cc1ccc2c(=O)c3ccccc3n(CCCN)c2c1C.O=C(O)C(=O)O [ER27319]
growth inhibition when combined with decitabine (Bliss independence score sum across all dose combinations greater than zero) (PC-3 cancer cells [2]; [5]): synergistic growth inhibition

COc1cc2ncn(-c3cc(OCc4ccccc4C(F)(F)F)c(C(N)=O)s3)c2cc1OC [GW843682]
growth inhibition when combined with decitabine (Bliss independence score sum across all dose combinations greater than zero) (PC-3 cancer cells [2]; [5]): synergistic growth inhibition

CC1=C(/C=C/C(C)=C/C=C/C(C)=C\C(=O)O)C(C)(C)CCC1 [Isotretinoin, isotretinoin]
Percent average xenograft tumor volume relative to baseline, Average (PC-3 xenograft tumors; Day 1): 100% | Percent average xenograft tumor volume relative to baseline, Average (PC-3 xenograft tumors; Day 4): 161.09% | Percent average xenograft tumor volume relative to baseline, Average (PC-3 xenograft tumors; Day 8): 238.81% | Percent average xenograft tumor volume relative to baseline, Average (PC-3 xenograft tumors; Day 11): 315.81% | Percent average xenograft tumor volume relative to baseline, Average (PC-3 xenograft tumors; Day 15): 394.27% | Percent average xenograft tumor volume relative to baseline, Average (PC-3 xenograft tumors; Day 18): 488.75% | Percent average xenograft tumor volume relative to baseline, Average (PC-3 xenograft tumors; Day 22): 522.19% | RAR Reporter Activity, Average [3]: 1.57 | RAR Reporter Activity, Trial 1 [3]: 1.66 | RAR Reporter Activity, Trial 2 [3]: 1.77 | RAR Reporter Activity, Trial 3 [3]: 1.62 | RAR Reporter Activity, Trial 4 [3]: 1.42 | RAR Reporter Activity, Trial 5 [3]: 1.47 | RAR Reporter Activity, Trial 6 [3]: 1.46 | Clonogenic Survival Relative to Control, Average (PC-3 cancer cells [4]): 96.62

Cn1c2ccccc2n2cc(-c3ccc([N+](=O)[O-])cc3)nc12 [KCC-08]
Percent average xenograft tumor volume relative to baseline, Average (PC-3 xenograft tumors; Day 1): 100% | Percent average xenograft tumor volume relative to baseline, Average (PC-3 xenograft tumors; Day 4): 151.16% | Percent average xenograft tumor volume relative to baseline, Average (PC-3 xenograft tumors; Day 8): 223.22% | Percent average xenograft tumor volume relative to baseline, Average (PC-3 xenograft tumors; Day 11): 250.94% | Percent average xenograft tumor volume relative to baseline, Average (PC-3 xenograft tumors; Day 15): 338.37% | Percent average xenograft tumor volume relative to baseline, Average (PC-3 xenograft tumors; Day 18): 406.04% | Percent average xenograft tumor volume relative to baseline, Average (PC-3 xenograft tumors; Day 22): 452.09% | luciferase activity / retinoic acid signaling pathway activation ([3]; KCC-08 10 μM with or without isotretinoin 5 μM): enhanced | RAR Reporter Activity, Average [3]: 2.24 | RAR Reporter Activity, Trial 1 [3]: 2.08 | RAR Reporter Activity, Trial 2 [3]: 2.31 | RAR Reporter Activity, Trial 3 [3]: 1.96 | RAR Reporter Activity, Trial 4 [3]: 2.46 | RAR Reporter Activity, Trial 5 [3]: 2.36 | RAR Reporter Activity, Trial 6 [3]: 2.28 | Clonogenic Survival Relative to Control, Average (PC-3 cancer cells [4]): 96.86

O=C(O)c1ccc(Nc2ncc3c(n2)-c2ccc(Cl)cc2C(c2c(F)cccc2F)=NC3)cc1 [MLN8054]
growth inhibition of DU-145 cells in combination with decitabine [1]: synergistic growth inhibition

CCCCCCCCCCCCCCCCn1cc[n+](Cc2ccccc2)c1C.[I-] [NH125]
growth inhibition when combined with decitabine (Bliss independence score sum across all dose combinations greater than zero) (PC-3 cancer cells [2]): synergistic growth inhibition

Nc1ccc(-c2cccc3c(=O)cc(N4CCOCC4)oc23)cc1 [PI828]
growth inhibition when combined with decitabine (Bliss independence score sum across all dose combinations greater than zero) (PC-3 cancer cells [2]; [5]): synergistic growth inhibition

Cn1cc(C2=C(c3cn(CCCSC(=N)N)c4ccccc34)C(=O)NC2=O)c2ccccc21 [RO31-8220]
growth inhibition when combined with decitabine (Bliss independence score sum across all dose combinations greater than zero) (PC-3 cancer cells [2]): synergistic growth inhibition

O=C1NC(=O)c2c1c1c3ccccc3n3c1c1c2c2ccccc2n1C1CCC3O1 [SB218078]
growth inhibition when combined with decitabine (Bliss independence score sum across all dose combinations greater than zero) (PC-3 cancer cells [2]; [5]): synergistic growth inhibition

CC[C@@]1(O)C[C@H](O[C@H]2C[C@H](N(C)C)[C@H](O[C@H]3C[C@H](O)[C@H](O[C@H]4CCC(=O)[C@H](C)O4)[C@H](C)O3)[C@H](C)O2)c2c(cc3c(c2O)C(=O)c2c(O)cccc2C3=O)[C@H]1C(=O)OC [aclarubicin]
growth inhibition when combined with decitabine (Bliss independence score sum across all dose combinations greater than zero) (PC-3 cancer cells [2]): synergistic growth inhibition

COc1ccc(C[C@H]2NC[C@H](O)[C@H]2OC(C)=O)cc1 [anisomycin]
growth inhibition when combined with decitabine (Bliss independence score sum across all dose combinations greater than zero) (PC-3 cancer cells [2]; [5]): synergistic growth inhibition

N.N.O=C([O-])C1(C(=O)[O-])CCC1.[Pt+2] [carboplatin]
growth inhibition when combined with decitabine (Bliss independence score sum across all dose combinations greater than zero) (PC-3 cancer cells [2]; [5]): synergistic growth inhibition

COc1cc2c(c(OC)c1OC)-c1ccc(OC)c(=O)cc1[C@@H](NC(C)=O)CC2 [colchicine]
growth inhibition when combined with decitabine (Bliss independence score sum across all dose combinations greater than zero) (PC-3 cancer cells [2]): synergistic growth inhibition

Nc1ccn([C@@H]2O[C@H](CO)[C@@H](O)[C@@H]2O)c(=O)n1 [cytarabine]
growth inhibition when combined with decitabine (Bliss independence score sum across all dose combinations greater than zero) (PC-3 cancer cells [2]; [5]): synergistic growth inhibition

CC(=O)O[C@@]12CO[C@@H]1C[C@H](O)[C@@]1(C)C(=O)[C@H](O)C3=C(C)[C@@H](OC(=O)[C@H](O)[C@@H](NC(=O)OC(C)(C)C)c4ccccc4)C[C@@](O)([C@@H](OC(=O)c4ccccc4)[C@H]21)C3(C)C [docetaxel]
growth inhibition when combined with decitabine (Bliss independence score sum across all dose combinations greater than zero) (PC-3 cancer cells [2]; [5]): synergistic growth inhibition

Nc1ccn([C@@H]2O[C@H](CO)[C@@H](O)C2(F)F)c(=O)n1 [gemcitabine]
growth inhibition when combined with decitabine (Bliss independence score sum across all dose combinations greater than zero) (PC-3 cancer cells [2]; [5]): synergistic growth inhibition

COc1c(C)c2c(c(O)c1C/C=C(\C)CCC(=O)O)C(=O)OC2 [mycophenolic acid]
growth inhibition when combined with decitabine (Bliss independence score sum across all dose combinations greater than zero) (PC-3 cancer cells [2]; [5]): synergistic growth inhibition

C[C@@H]1O[C@@H](O[C@H]2C[C@@H](O)[C@]3(CO)[C@H]4[C@H](O)C[C@]5(C)[C@@H](C6=CC(=O)OC6)CC[C@]5(O)[C@@H]4CC[C@]3(O)C2)[C@H](O)[C@H](O)[C@H]1O [ouabain]
growth inhibition when combined with decitabine (Bliss independence score sum across all dose combinations greater than zero) (PC-3 cancer cells [2]; [5]): synergistic growth inhibition

CO[C@H]1C[C@H](O[C@H]2CC[C@]3(C)[C@H]4CC[C@]5(C)[C@@H](C6=CC(=O)OC6)CC[C@]5(O)[C@@H]4CC[C@]3(O)C2)O[C@H](C)[C@H]1O [periplocymarin]
growth inhibition when combined with decitabine (Bliss independence score sum across all dose combinations greater than zero) (PC-3 cancer cells [2]): synergistic growth inhibition

C[C@]12CC[C@H]3[C@@H](CC[C@]4(O)C[C@@H](O)CC[C@]34C=O)[C@@]1(O)CC[C@@H]2C1=CC(=O)OC1 [strophanthidin]
growth inhibition when combined with decitabine (Bliss independence score sum across all dose combinations greater than zero) (PC-3 cancer cells [2]): synergistic growth inhibition

CC[C@@]1(O)C(=O)OCc2c1cc1n(c2=O)Cc2cc3c(CN(C)C)c(O)ccc3nc2-1 [topotecan]
growth inhibition when combined with decitabine (Bliss independence score sum across all dose combinations greater than zero) (PC-3 cancer cells [2]; [5]): synergistic growth inhibition

CC(C)[C@@H]1NC(=O)[C@H](C)OC(=O)[C@@H](C(C)C)NC(=O)[C@@H](C(C)C)OC(=O)[C@H](C(C)C)NC(=O)[C@H](C)OC(=O)[C@@H](C(C)C)NC(=O)[C@@H](C(C)C)OC(=O)[C@H](C(C)C)NC(=O)[C@H](C)OC(=O)[C@@H](C(C)C)NC(=O)[C@@H](C(C)C)OC1=O [valinomycin]
growth inhibition when combined with decitabine (Bliss independence score sum across all dose combinations greater than zero) (PC-3 cancer cells [2]; [5]): synergistic growth inhibition

CCC1=C[C@@H]2CN(C1)Cc1c([nH]c3ccccc13)[C@@](C(=O)OC)(c1cc3c(cc1OC)N(C)[C@H]1[C@@](O)(C(=O)OC)[C@H](OC(C)=O)[C@]4(CC)C=CCN5CC[C@]31[C@@H]54)C2 [vinorelbine]
growth inhibition when combined with decitabine (Bliss independence score sum across all dose combinations greater than zero) (PC-3 cancer cells [2]; [5]): synergistic growth inhibition
